In patent US9474774B2, “Pyridine alkaloids, preparation process thereof, and the uses of the pyridine alkaloids” (FOOD INDUSTRY RESEARCH AND DEVELOPMENT INSTITUTE, priority 2010, dated 2016):
“And” between values parts separate entries of the source, which are not always exact repeats. Equal entries are not always repeated. Where two headings read alike, the source gives them in different places.

Experiments:
PPARγ [1] = molecular target: T1, PPARγ (Homo sapiens, UniProt P37231); experiment: LanthaScreen TR-FRET PPARγ competitive binding assay
T1 construct: purchased Invitrogen
T1 sequence (P37231 204-505 limits assumed): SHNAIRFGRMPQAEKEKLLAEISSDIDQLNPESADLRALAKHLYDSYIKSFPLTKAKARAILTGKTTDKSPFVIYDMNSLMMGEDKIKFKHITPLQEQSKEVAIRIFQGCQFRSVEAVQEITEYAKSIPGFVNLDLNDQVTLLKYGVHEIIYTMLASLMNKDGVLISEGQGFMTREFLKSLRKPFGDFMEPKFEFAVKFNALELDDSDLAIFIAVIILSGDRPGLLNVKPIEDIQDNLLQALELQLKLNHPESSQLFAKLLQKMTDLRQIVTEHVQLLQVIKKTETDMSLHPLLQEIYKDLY
Method: Monasnicotinates A, B, C and D were prepared according to Example 3 and Ethanol and ethyl acetate extracts of BCRC 930146-fermented rice were prepared according to Example 7. The binding activity of Monasnicotinates A, B, C and D and ethanol and ethyl acetate extracts of BCRC 930146-fermented rice to PPARγ and PPARα were analyzed using competitive binding assay kits (LanthaScreen TR-FRET PPARγ Binding Assay and Invitrogen PPARα Competitive Binding Assay) according to their instructions. Troglitazone and arachidonic acid were used as reference substances for PPARγ and PPARα ligand, respectively.

[2] = system: LPS-stimulated macrophage cells RAW264.7; experiment: Inhibition of NO production induced by LPS (Griess reagent); assay type: cell-based, murine; settings: Mus musculus, LPS 1 μg/mL, 24 hours
Method: (§1) The murine macrophage cell line RAW264.7 (BCRC 60001=ATCC TIB-71) was cultured in Dulbecco's modified Eagle's medium (DMEM, Gibco BRL Life Technologies, Inc.) supplemented with 10% heat inactivated fetal bovine serum (FBS) and incubated at 37° C. in a humidified 5% CO2 atmosphere with a 96-well flat-bottomed culture plate. After 24 hours, the condition medium was replaced with fresh DMEM and FBS. Then the three test compounds, Monasnicotinates A, C and D, (0, 1, 5, 10, and 20 μg/mL) were added respectively in the presence of lipopolysaccharide (LPS, 1 μg/mL; Sigma, Cat no: L-2654), and the plates were incubated at the same condition for 24 hours.
(§2) The cultured cells were then centrifuged and the supernatants were used for NO production measurement, with a MTT (3-(4,5-dimethylthiazol-2yl)-2,5-diphenyl tetrazolium bromide) assay to determine cell viability. The supernatant was mixed with an equal volume of the Griess reagent (1% sulfanilamide, 0.1% N-(1-naphthyl)ethyl-enediamine dihydrochloride in 2.5% phosphoric acid solution) and incubated for 10 min at room temperature. Nitrite concentration was determined by measuring the absorbance at 540 nm using an ELISA plate reader (μ Quant) (see Mosman, T., 1983, “Rapid colorimetric assay for cellular growth and survival: application to proliferation and cytotoxicity assays.” J. Immunol. Methods, 65: 55-63). The MTT colorimetric assay was modified from that of Mosmann (see Johansson, M., et al., 2002, “Biologically active secondary metabolites from the ascomycete A111-95.” J. Antibiot., 55: 104-106). The test is based upon the selective ability of living cells to reduce the yellow soluble salt, MTT, to a purple-blue insoluble formazan. MTT (Merck; dissolved in phosphate-buffered saline at 5 mg/mL) solution was added onto the attached cells mentioned above (10 μl per 100 μl culture) and incubated at 37° C. for 4 hours. Then, DMSO was added and the amount of colored formazan metabolite formed was determined by absorbance at 550 nm. The optical density of formazan formed in control (untreated) cells was taken as 100% viability.

3T3-L1 preadipocytes [3] = experiment: 3T3-L1 preadipocyte differentiation, insulin differentiation model; assay type: cell-based; settings: sample concentration 2 μg/ml, control = 100
Method: (§3) Preadipocytes were prepared according to the method described by Waki et al., (2007, “The small molecule harmine is an antidiabetic cell-type-specific regulator of PPARγ expression.” Cell Metabolism, 5(5): 357-370) and Huang et al., (2005, “Herbal or natural medicines as modulators of peroxisome proliferator-activated receptors and related nuclear receptors for therapy of metabolic syndrome.” Basic and Clinical Pharmacology and Toxicology, 96: 3-14.). Preadipocytes were cultured in DMEM (Dulbecco's Modified Eagle's Medium-high glucose, Sigma D-7777) containing 10% of fetal bovine serum (FBS) and incubated at 37° C. in a 5% CO2 incubator.
(§4) Before the differentiation induction experiments, the cells were plated into either 96- or 24-well plates (the concentration of cells in each well was about 2×10^4/cm^2). The plates were incubated for about two days to allow the cells to proliferate to confluence, and then maintained for another two days. The medium was changed to different differentiation media according to different experiments. The day of switching to differentiation medium was designated as day zero.
The differentiation medium used in insulin differentiation model was DMEM with 10% FBS comprising 10 μg/ml of insulin. Differentiation media containing each of the four test compounds, Monasnicotinates A, B, C and D, were added to each well of the 24- or 96-well 3T3-L1 preadipocyte plates (the final concentration of the test compounds in each well is 2 μg/ml). The control group was the culture with only the differentiation medium and no sample. The cultures were incubated at 37° C. in a 5% CO2 incubator for seven days (during the period, the differentiation medium and sample were replaced with fresh ones twice), and then the medium was replaced by DMEM with 10% FBS. The cultures were maintained until day 9 or day 10. The cells of the experiment groups and control groups at day 9 or day 10 were stained with AdipoRed and the concentrations of triglyceride were analyzed.
(§5) The 96-well plates were rinsed with PBS, and 200 μl of PBS and 5 μl of AdipoRed reagent (Lonze Walkersville, Inc., Walkersville, Md., USA, Catalog No. PT-7009) were added to each well. After 10 to 15 minutes, the plates were read with a spectrofluorometer (Infinite M200) set at an excitation wavelength of 485 nm and an emission wavelength of 572 nm. The fluorescent data of the experiment group was divided by the fluorescent data of the control group to obtain a percentage of induction activity.
(§6) The 24-well plates were rinsed with PBS, and the cells were washed off with 0.1 ml of 1% Triton λ 100 per well. The cells were then frozen, thawed and centrifuged (10,000 rpm/5 min) and the supernatant were collected. An aliquot of 0.05 ml of the supernatant was analyzed using Triglycerol assay Kit (Audit Diagnostics, Ltd.).
(§7) The protein amounts were analyzed using Bio-Rad Dc Protein assay reagent (Bio-Rad). The triglyceride concentration was divided by the protein concentration obtained using Bio-Rad Dc Protein assay to calculated the amount (μg) of triglyceride per μg protein. The triglyceride amounts of the experiment groups were divided by those of the control groups to determine the differentiation induction activity of the samples.
(§8) 3T3-L1 preadipocytes differentiation assay was conduct according to Example 5.

PPARγ [4] = experiment: Nuclear PPARγ ELISA in differentiated 3T3-L1 cells; assay type: cell-based; settings: final sample concentration 5 μg/mL, control: medium only
Method: Nuclear and cytosolic proteins of the differentiated 3T3-L1 cells were extracted and the nuclear PPARγ and cytosolic adiponectin contents were analyzed using commercial kits.
(§9) 3T3-L1 cells were incubated and differentiated on petri dish (9 cm) for 9 days and washed with PBS. 1 ml of buffer A working solution (Affymetrix® Nuclear Extraction Kits, Panomics, Inc.; freshly prepared according to the instructions) was added to the petri dish, and the petri dish was placed on ice and shaken for 10 minutes on a shaker. Cells on the petri dish were transferred to a 1.5 ml centrifuge tube and centrifuged at 14,000 rpm for 3 minutes. The supernatant, the cytosol fraction, was collected for further analysis. 0.5 ml of buffer B working solution (Affymetrix® Nuclear Extraction Kits, Panomics, Inc.; freshly prepared according to the instructions) was added to the centrifuge tube to re-suspend the cell pellet and the centrifuge tube was placed on ice and shaken for two hours on a shaker. The centrifuge tube was then centrifuged at 14,000 rpm for 5 minutes. The supernatant, the nucleus fraction, was collected for further analysis.
Nuclear PPARγ in the nucleus fraction was analyzed using Transcription Factor PPARγ ELISA Kit (Panomics, Inc.) according to the instructions.

RAW264.7 = experiment: MTT cell viability assay; assay type: cell-based, murine
Method: as §1, §2

3T3-L1 preadipocytes [5] = experiment: 3T3-L1 preadipocyte differentiation, DMI differentiation model; assay type: cell-based; settings: for triglyceride droplets under inverted microscope: 5 μg/ml, vs DMI control; for TG (%): sample concentration 5 μg/ml, control = 100
Method: as §3, §4
The differentiation medium used in DMI differentiation model comprised an three-in-one differentiation inducer (DMI): dexamethasone (Sigma D-4902, dissolved in ethanol to produce a 0.25M stock solution), isobutyl-methylxanthine (Sigma 1-5879, dissolved in DMSO to produce a 0.5M stock solution), and insulin (Sigma I-6634, dissolved in 0.01N HCl to produce a 10 mg/ml stock solution). The final concentrations of dexamethasone, isobutyl-methylxanthine and insulin were 0.25 μM, 0.5 mM and 5 μg/ml, respectively.
The four test compounds, Monasnicotinates A, B, C and D, were dissolved in DMSO respectively to produce a 5 mg/ml stock solution. One ml of the differentiation medium containing test sample was added to each well of the 24-well 3T3-L1 preadipocyte plates (the final concentration of the sample in each well was 5 μg/ml). The control group was the culture with only the differentiation medium and no sample. The cultures were incubated at 37° C. in a 5% CO2 incubator for three days, and then the medium was replaced by DMEM with 10% FBS. The cultures were maintained until day 9 or day 10, and the amounts of triglyceride in the cells were analyzed. The extents of differentiation (the amounts of oil droplets) were also examined under an inverted microscope.
as §5, §6, §7, §8

adiponectin = experiment: Cytosolic adiponectin ELISA in differentiated 3T3-L1 cells; assay type: cell-based, Mouse; settings: insulin model and DMI model, 5 μg/mL (FIG. 7)
Method: 3T3-L1 cells were treated with Monasnicotinates A, B, C and D (prepared in Example 3) as described in Example 5. Nuclear and cytosolic proteins of the differentiated 3T3-L1 cells were extracted and the nuclear PPARγ and cytosolic adiponectin contents were analyzed using commercial kits.
as §9
Cytosolic adiponectin in the cytosol fraction was analyzed using Quantikine Mouse Adiponectin immunoassay (R&D systems) according to the instructions.

[6] = system: LPS-stimulated macrophage cells RAW264.7; settings: literature value; read-out: IC50, production of NO by LPS-stimulated RAW264.7 (reported, Motai and Kitanaka 2005); cited from earlier work

SMILES | IC50 (PPARγ [1]) [µM] | IC50 [2] | AdipoRed (%) (3T3-L1 preadipocytes [3]) | TG (%) (3T3-L1 preadipocytes [3]) | PPARγ expression (% of control) (PPARγ [4]; DMI model) | PPARγ expression (% of control) (PPARγ [4]; Insulin model) | Cytotoxicity (MTT assay) (RAW264.7; 1-10 μg/mL, with LPS treatment for 24 hours) | triglyceride droplets under inverted microscope (3T3-L1 preadipocytes [5]) | TG (%) (3T3-L1 preadipocytes [5]) | concentration of cytosolic adiponectin (adiponectin) | Cytotoxicity (MTT assay) (RAW264.7; at 10 μg/mL) | Cytotoxicity (MTT assay) (RAW264.7; 1-20 μg/mL, with LPS treatment for 24 hours) | IC50 [6] [µM]
CCCCCC(=O)C/C(=C\c1cc(CCC)ncc1C(=O)OC)C(C)=O [Monasnicotinate D, (E)-methyl-4-(2-acetyl-4-oxonon-1-enyl)-6-propylnicotinate] | 64.5 | 9.4 µg/mL and 24.8 µM | 247 | 169 | 166 ± 5 % of control | 424 ± 19 % of control | – | more triglyceride droplets than the control culture | 204 | increase | – | did not show any significant cytotoxicity | –
O=c1c(O)c(-c2ccc(O)c(O)c2)oc2cc(O)cc(O)c12 [quercetin, reference compound] | – | 26.4 µM | – | – | – | – | – | – | – | – | – | – | 26.8

Second part, led by results:

IC50 (PPARγ [1]) [µM] | SMILES | IC50 [2] | AdipoRed (%) (3T3-L1 preadipocytes [3]) | TG (%) (3T3-L1 preadipocytes [3]) | PPARγ expression (% of control) (PPARγ [4]; DMI model) | PPARγ expression (% of control) (PPARγ [4]; Insulin model) | Cytotoxicity (MTT assay) (RAW264.7; 1-10 μg/mL, with LPS treatment for 24 hours) | triglyceride droplets under inverted microscope (3T3-L1 preadipocytes [5]) | TG (%) (3T3-L1 preadipocytes [5]) | concentration of cytosolic adiponectin (adiponectin) | Cytotoxicity (MTT assay) (RAW264.7; at 10 μg/mL) | Cytotoxicity (MTT assay) (RAW264.7; 1-20 μg/mL, with LPS treatment for 24 hours) | IC50 [6] [µM]
42 | C/C=C/c1cc(/C=C(\CC(=O)CCCCC)C(C)=O)c(C(=O)OC)cn1 [Monasnicotinate A, methyl-4-((E)-2-acetyl-4-oxonon-1-enyl)-6-((E)-prop-1-enyl)nicotinate] | 5.72 µg/mL and 16 µM | 159 | 128 | 100 ± 7 % of control | 139 ± 1 % of control | did not show any significant cytotoxicity | more triglyceride droplets than the control culture | 159 | increase | – | – | –
11 | C/C=C/c1cc(/C=C(\CC(=O)CCCCC)C(C)=O)c(C(=O)OCC)cn1 [Monasnicotinate B, ethyl-4-((E)-2-acetyl-4-oxonon-1-enyl)-6-((E)-prop-1-enyl)nicotinate] | – | 287 | 132 | 147 ± 2 % of control | 237 ± 9 % of control | – | more triglyceride droplets than the control culture | 175 | increase | – | – | –
18.2 | C/C=C/c1cc(/C=C(\CC(=O)CCCCCCC)C(C)=O)c(C(=O)OC)cn1 [Monasnicotinate C, methyl-4-((E)-2-acetyl-4-oxoundec-1-enyl)-6-((E)-prop-1-enyl)nicotinate] | – | 209 | 145 | 115 ± 1 % of control | 333 ± 15 % of control | – | more triglyceride droplets than the control culture | 132 | increase | significant cytotoxic effect | – | –
